Test results taken from patent publication US10913781B2, “Pepducin design and use” (Tufts Medical Center, Inc., priority 2011, dated 2021).

Key:
PAR2 [1] = target: PAR2 (Mus musculus, UniProt P55086); assay: Mast cell conditioned media-induced mouse paw edema; assay type: in vivo; parameters: from tissue; host or cells: living C57BL/6 mice, hindpaw; details: 10 mg/kg
Description: (A) Mast cells were treated with 2 mg/mL of mast cell degranulating agent 48/80 or 2% 1-carrageenan/4% kaolin. […] (B) P2pal-18S inhibits human neutrophil chemotaxis (n=6) to mast cell media. Human neutrophils were incubated with […] P2pal-18S, or […] mast cell tryptase inhibitor APC-366 and allowed to migrate 30 min toward CM from mast cells. (C) C57BL/6 mice (n=5) were pretreated with the tryptase inhibitor APC-366 (5 mg/kg, s.c.) or vehicle (20% DMSO) and then challenged with intraplantar injection of 1-carrageenan/kaolin. (D) Mast cell conditioned media (30 μL of 1-carrageenan/kaolin stimulated media) was injected into the hindpaws of C57BL/6 mice treated with 10 mg/kg P2pal-18S or vehicle (n=5). Data represent mean±SEM. #, P=0.07, *, P<0.05 and **, P<0.005. (E) Mast cell-deficient mice have a significant reduction in 1-carrageenan/kaolin induced paw edema (8 h time point, n=4-6) as compared to littermate controls. Mast-cell deficient mice or littermate controls with intact mast cells were treated with P2pal-18S (10 mg/kg, s.c.) or vehicle and hind paws challenged with 1-carrageenan/kaolin irritant. Error bars represent mean±SEM.
To examine whether mast cells and mast cell tryptase were activating PAR2 in the paw edema model in vivo, mice were depleted of mast cells through pretreatment with compound 48/80 (Carvalho M et al. Eur J Pharmacol (2005), 525: 161-169). […]

PAR2 [2] = target: T1, PAR2 (Homo sapiens, UniProt P55085); assay: Agonist | (%)^‡; parameters: SW620 colon adenocarcinoma cells that endogenously express PAR2; endogenous in cells; host or cells: SW620 (in A7 the SW620 cells were additionally stably transfected with PAR1)
Target sequence in this assay (P55085 26-397 limits assumed): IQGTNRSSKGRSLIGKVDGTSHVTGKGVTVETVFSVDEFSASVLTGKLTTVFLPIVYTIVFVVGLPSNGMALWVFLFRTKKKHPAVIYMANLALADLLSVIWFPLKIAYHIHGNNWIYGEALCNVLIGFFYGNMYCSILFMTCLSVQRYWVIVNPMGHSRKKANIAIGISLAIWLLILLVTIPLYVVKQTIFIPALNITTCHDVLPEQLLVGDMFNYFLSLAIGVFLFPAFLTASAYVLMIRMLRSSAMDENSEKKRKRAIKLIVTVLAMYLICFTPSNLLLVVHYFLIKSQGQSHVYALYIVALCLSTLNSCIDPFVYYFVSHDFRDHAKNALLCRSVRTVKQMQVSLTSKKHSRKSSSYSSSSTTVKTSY

PAR4 = target: T2, PAR4 (Homo sapiens, UniProt Q96RI0); assay: Calcium flux assay in SW620 cells, PAR4; assay type: cell-based; parameters: endogenous in cells
T2 sequence (Q96RI0 18-385): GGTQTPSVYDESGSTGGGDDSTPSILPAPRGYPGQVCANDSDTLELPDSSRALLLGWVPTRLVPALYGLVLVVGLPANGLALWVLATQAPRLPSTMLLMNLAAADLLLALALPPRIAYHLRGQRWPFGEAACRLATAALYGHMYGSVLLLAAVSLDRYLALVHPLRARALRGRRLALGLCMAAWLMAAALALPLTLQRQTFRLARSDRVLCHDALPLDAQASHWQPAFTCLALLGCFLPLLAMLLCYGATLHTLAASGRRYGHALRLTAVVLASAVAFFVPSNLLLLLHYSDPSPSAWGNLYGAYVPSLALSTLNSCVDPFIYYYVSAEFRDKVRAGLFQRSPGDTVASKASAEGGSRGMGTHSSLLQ

PAR2 [3] = target: T1, PAR2; assay: Human neutrophil chemotaxis toward mast cell conditioned media (PAR2 pepducin); assay type: cell-based; parameters: SW620 colon adenocarcinoma cells that endogenously express PAR2; endogenous in cells; host or cells: SW620 (in A7 the SW620 cells were additionally stably transfected with PAR1); details: 1 mM P2pal-18S; 30 min
Description: (A) Mast cells were treated with 2 mg/mL of mast cell degranulating agent 48/80 or 2% 1-carrageenan/4% kaolin. […] (B) P2pal-18S inhibits human neutrophil chemotaxis (n=6) to mast cell media. Human neutrophils were incubated with […] P2pal-18S, or […] mast cell tryptase inhibitor APC-366 and allowed to migrate 30 min toward CM from mast cells. (C) C57BL/6 mice (n=5) were pretreated with the tryptase inhibitor APC-366 (5 mg/kg, s.c.) or vehicle (20% DMSO) and then challenged with intraplantar injection of 1-carrageenan/kaolin. (D) Mast cell conditioned media (30 μL of 1-carrageenan/kaolin stimulated media) was injected into the hindpaws of C57BL/6 mice treated with 10 mg/kg P2pal-18S or vehicle (n=5). Data represent mean±SEM. #, P=0.07, *, P<0.05 and **, P<0.005. (E) Mast cell-deficient mice have a significant reduction in 1-carrageenan/kaolin induced paw edema (8 h time point, n=4-6) as compared to littermate controls. Mast-cell deficient mice or littermate controls with intact mast cells were treated with P2pal-18S (10 mg/kg, s.c.) or vehicle and hind paws challenged with 1-carrageenan/kaolin irritant. Error bars represent mean±SEM. […]
Target sequence in this assay (P55085 26-397): as the sequence (P55085 26-397 limits assumed) above

PAR2 (Mus musculus, UniProt P55086), sequence (P55086 26-399): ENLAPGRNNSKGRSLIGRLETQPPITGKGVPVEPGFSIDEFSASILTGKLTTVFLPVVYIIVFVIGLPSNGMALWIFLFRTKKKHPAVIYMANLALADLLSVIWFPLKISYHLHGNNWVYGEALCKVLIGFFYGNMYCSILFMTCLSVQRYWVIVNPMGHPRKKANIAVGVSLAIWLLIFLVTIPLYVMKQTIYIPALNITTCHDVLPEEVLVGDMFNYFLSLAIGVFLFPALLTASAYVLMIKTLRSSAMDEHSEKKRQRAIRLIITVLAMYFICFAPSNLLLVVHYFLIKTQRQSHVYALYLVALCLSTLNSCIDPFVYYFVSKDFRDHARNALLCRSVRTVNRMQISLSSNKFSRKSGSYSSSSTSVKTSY

Decrease in peak development of edema (PAR2 [1]; at 4 h, mast cell media intraplantar): 50%
Protection against edema at later times (PAR2 [1]; at 8 h and thereafter): complete protection
Agonist | (%)^‡ (PAR2 [2]): 3%
Inhibition of PAR4 calcium flux (PAR4): did not inhibit
Inhibition of chemotactic migration toward tryptase-containing mast cell media (PAR2 [3]): completely inhibited
Compound: CCCCCCCCCCCCCCCC(=O)N[C@@H](CCCNC(=N)N)C(=O)N[C@@H](CO)C(=O)N[C@@H](CO)C(=O)N[C@@H](C)C(=O)N[C@@H](CCSC)C(=O)N[C@@H](CC(=O)O)C(=O)N[C@@H](CCC(=O)O)C(=O)N[C@@H](CC(N)=O)C(=O)N[C@@H](CO)C(=O)N[C@@H](CCC(=O)O)C(=O)N[C@@H](CCCCN)C(=O)N[C@@H](CCCCN)C(=O)N[C@@H](CCCNC(=N)N)C(=O)N[C@@H](CCCCN)C(=O)N[C@@H](CO)C(=O)N[C@@H](C)C(=O)N[C@H](C(=O)N[C@@H](CCCCN)C(N)=O)[C@@H](C)CC [P2pal-18S]
